Legend:
Format in all cases: cell-based
[1] = tested on: E. coli strain S4246; test: Antibiotic sensitivity/resistance of erythromycin-resistant strain S4246
Protocol: The erythromycin-resistant strain S4246 was generated using conventional recombineering (76, 77). Briefly, chemically competent S2060 cells were transformed with pKD46 (77) and plated on 2×YT agar plates supplemented with 50 μg mL^−1 carbencillin at 30° C. A single colony was picked, grown at 30° C. in 2×YT liquid medium supplemented with 50 μg mL^−1 carbencillin and 10 mM arabinose, and made chemically competent when the culture reached the appropriate OD600. Chemically competent S2060/pKD46 cells were transformed with the phosphothiorated recombineering oligonucleotide AB5708 (5′-C*T*C*A*[…] CCGCG […]-3′, SEQ ID NO: 403; phosphothirate bonds indicated as *, introduced mutation is bolded) to introduce the rrlA-H A2058U mutation on replichore 2 (76). Following recovery for 3 hours at 30° C., transformed cells were plated on 2×YT agar plates supplemented with 1000 μg mL^−1 erythromycin and incubated at 37° C. to cure the resident pKD46 plasmid. Following overnight growth, single colonies were picked into 2×YT liquid medium supplemented with 50 μg mL^−1 streptomycin, 10 μg mL^−1 tetracycline and 1000 μg mL^−1 erythromycin and allowed to grow overnight at 37° C. To assess the degree of rrlA-H mutagenesis, cultures were used as PCR templates using primers AB5710 (5′-[…]-3′, SEQ ID NO: 404) and AB5711 (5′-[…]-3′, SEQ ID NO: 405), and the PCR products were treated with the endonuclease HpyCH4III (New England Biolabs) according to the manufacturer's guidelines. Wildtype rrlA-H genotypes show no digestion under these conditions, whereas complete conversion results in complete PCR product digestion. Intermediate (incomplete) digestion indicated in incomplete conversion of all seven genomic alleles. The completely converted strain S4246 was confirmed to be sensitive to the following antibiotics (ensures no resistance crosstalk with plasmid-borne markers): carbenicillin (50 μg mL^−1), spectinomycin (100 μg mL^−1), chloramphenicol (40 μg mL^−1), and kanamycin (30 μg mL^−1). The strain was confirmed to be resistant to the following antibiotics: streptomycin (50 μg mL^−1), tetracycline (10 μg mL^−1), and erythromcyin (1000 μg mL^−1).

[2] = tested on: heterologous ribosomes; test: Erythromycin-dependent orthogonal sfGFP reporter in S4246, heterologous ribosomes
Text: (§1) To assess the degree of association between E. coli LSUs and heterologous SSUs, an erythromycin-dependent reporter was developed to distinguish between genome- (E. coli; erythromycin-resistant) and episome-derived (heterologous; erythromycin-sensitive) LSUs. The erythromycin-resistant strain S4246 was developed, wherein all seven genomic 23S genes (rrlA-H) of 52060 cells were mutated (A2058U) (75) to mitigate macrolide binding in the ribosomal exit tunnel (FIG. 18A) (76, 77). rrlA-H A2058U sequences are presented in Table 1.
(§2) Next, the ErmC leader peptide, ermCL, was introduced ahead of the orthogonal sfGFP reporter, ensuring that reporter translation would be abrogated via erythromycin- and ermCL-dependent translational stalling (78) (FIG. 18B).
This analysis was next extended to a set of 20 functional heterologous ribosomes.

[3] = tested on: episome-derived E. coli orthogonal ribosome LSUs; test: Erythromycin-dependent (ermCL) orthogonal sfGFP reporter in S4246, E. coli orthogonal ribosomes
Text: as §1, §2
To validate this sensor, the erythromycin sensitivity of an episome-derived E. coli orthogonal ribosome encoding or lacking the identical A2058U mutation was assessed. A recently described stapled E. coli ribosome (d2d8) (7) that preferentially uses a covalently linked 23S rRNA, with or without the identical mutation was used as a control.

[4] = heterologous ribosomes bearing intermediate homology (92.9-97.0%)

Question: CC1(C)S[C@@H]2[C@H](NC(=O)C(C(=O)O)c3ccccc3)C(=O)N2[C@H]1C(=O)O (stereo partly drawn) [carbenicillin] was tested. Which “sensitivity of strain S4246” value ([1]; carbenicillin 50 μg mL^−1) did it give?
Answer: Its value is “sensitive”.

Question: With O=C(N[C@H](CO)[C@H](O)c1ccc([N+](=O)[O-])cc1)C(Cl)Cl [chloramphenicol] as the compound, how does the “sensitivity of strain S4246” value ([1]; chloramphenicol 40 μg mL^−1) read?
Answer: Its value is “sensitive”.

Question: What does the source list for CC[C@H]1OC(=O)[C@H](C)[C@@H](O[C@H]2C[C@@](C)(OC)[C@@H](O)[C@H](C)O2)[C@H](C)[C@@H](O[C@@H]2O[C@H](C)C[C@H](N(C)C)[C@H]2O)[C@](C)(O)C[C@@H](C)C(=O)[C@H](C)[C@@H](O)[C@]1(C)O [erythromycin]?
Answer: sfGFP signal upon erythromycin treatment [2, 4]: extensive reduction; viability upon erythromycin treatment [2, 4]: no associated viability defect; sfGFP translation and cell viability upon erythromycin treatment ([2]; heterologous ribosomes with high 16S sequence identity to E. coli (≥99.2%)): dramatic reduction; sfGFP signal upon erythromycin treatment ([2]; more divergent heterologous ribosomes (79.3-90.3%)): decreased minimally; MIC ([1]; Escherichia coli, S4246): > 1000 µg/mL; resistance of strain S4246 ([1]; erythromycin 1000 μg mL^−1): resistant; change in orthogonal translation upon erythromycin dosing ([3]; A2058U-LSUs, free and stapled (d2d8)): no appreciable change; change in orthogonal translation upon erythromycin dosing ([3]; unmutated LSUs, dose-dependent): marked reduction

Question: CN[C@@H]1[C@H](O)[C@H](NC)[C@H]2O[C@@]3(O)C(=O)C[C@@H](C)O[C@H]3O[C@@H]2[C@H]1O [spectinomycin] was tested. Which “sensitivity of strain S4246” value ([1]; spectinomycin 100 μg mL^−1) did it give?
Answer: The value was “sensitive”.

Question: [H]/N=C(/N)N[C@H]1[C@H](O)[C@@H](O)[C@H](O[C@@H]2O[C@@H](C)[C@](O)(C=O)[C@H]2O[C@@H]2O[C@@H](CO)[C@H](O)[C@@H](O)[C@@H]2NC)[C@@H](N/C(N)=N\[H])[C@@H]1O [streptomycin] was tested. Which “resistance of strain S4246” value ([1]; streptomycin 50 μg mL^−1) did it give?
Answer: Its value is “resistant”.

From patent US20220315934A1, “HETEROLOGOUS RIBOSOME GENERATION, […] COMPOSITIONS THEREOF” (priority 2019, published 2022)
